Source: US20180171291A1, “DERIVATION OF ENDOTHELIAL CELLS FROM MAMMALIAN PLUIRPOTENT STEM CELLS” (THE JOHNS HOPKINS UNIVERSITY, priority 2012, published 2018)

B1: BMP4: angiogenic growth factor, bone morphogenetic protein-4 (protein, UniProt P12644 293-408, looked up)
Bone morphogenetic protein 4: SPKHHSQRARKKNKNCRRHSLYVDFSDVGWNDWIVAPPGYQAFYCHGDCPFPLADHLNSTNHAIVQTLVNSVNSSIPKACCVPTELSAISMLYLDEYDKVVLKNYQEMVVEGCGCR

Test system: hPSCs
Assay: sequential differentiation of hPSCs into endothelial cells on collagen IV, EC marker expression by flow cytometry / immunofluorescence
Type: cell-based, human
Protocol: In the inventive method, hPSCs were cultured at a concentration of 1.25×10^4 per cm^2 on collagen IV plates for 12 days. In the “direct” method, the cells were treated with VEGF for the entire time. With the “sequential” method, the cells were supplemented with 10% serum and were not treated with VEGF until day 6. See FIG. 1 for a comparison of the protocols.
In our sequential method, hPSCs were cultured on collagen IV plates in media supplemented with 10% serum. After 6 days in culture, cells were strained and re-cultured in media supplemented with 50 ng/ml vascular endothelial growth factor (VEGF). Cells which were differentiated via direct means were cultured in the VEGF-supplemented media for all 12 days. EC markers were examined via immunofluorescence microscopy and flow cytometry. We tested hESC line, H9, as well as hiPSC line, MR31, which was derived from normal, fetal fibroblasts using three factors, Oct-4, Sox2, Klf4 (8, 9).
However, because sequentially-derived cells were only ˜5% VEcad+, we sought to improve upon the differentiation efficiency via biochemical means. To this end, we studied the addition of a TGFβ inhibitor, SB431542 (10) as well as angiogenic growth factors, bone morphogenetic protein-4 (BMP4) and Indian Hedgehog (lhh). For our TGFβ inhibitor studies, we examined the effects of SB431542 in the second half of differentiation plus high (50 ng/ml) or low (1 ng/ml) VEGF. […] Remarkably, VEcad expression increased regardless of high or low VEGF concentrations. […] Cells expressed approximately 1% Tra-1-60 indicating they were fully differentiated.

[1] = added in the second half of sequential differentiation plus VEGF, 12 days in culture

Molecule | Expression of CD31 [1] | Expression of KDR [1] | expression of mature EC marker, VEcad (added in the second half of sequential differentiation plus high (50 ng/ml) or low (1 ng/ml) VEGF, 12 days in culture) | endothelial differentiation capacity (compared with levels seen with SB431542 supplementation)
NC(=O)c1ccc(-c2nc(-c3ccc4c(c3)OCO4)c(-c3ccccn3)[nH]2)cc1 [SB431542] | increased | increased | dramatic increase | 
B1 |  |  |  | not able to augment
